Where two headings read alike, the source gives them in different places. Ends that are not written are not given here.
Assays:
C57BL/6J mice [1] = system: C57BL/6J mice
From the text: The subcutaneous injections were placed at the lower back. On study day 8, the mice were terminated and the GI tract was removed for weight determination.

C57BL/6J mice [2] = test: Gut proliferation in C57BL/6J mice, PoC study 2 (liraglutide and teduglutide); format: in vivo
From the text: (§1) Forty (40, n=10, 4 groups) male C57BL/6J mice obtained from Taconic, Denmark, were used. At the time of the experiment, the mice had reached an age of 9-10 weeks. The mice were acclimatized for one week in their new environment and offered regular chow diet (Altromin 1324, Brogaarden A/S, Denmark) and domestic quality tap water. Animals were housed two per cage during the study, in a light-, temperature-, and humidity-controlled room (12-hour light: 12-hour dark cycle, lights on/off at 4 AM/4 PM hour; 22±1° C.; 50±10% relative humidity). […] Animals were uniquely identified with implantable microchips (Pet ID Microchip, E-vet) in all mice upon arrival. Animals were identified using the WS-2 weight station (MBrose ApS, Faaborg, Denmark) connected to a laptop running the HM02Lab software (Ellegaard Systems, Faaborg, Denmark). The HM02Lab software matches the body weight with ID and calculates the dose directly based on the body weight. All mice were handled for 3 days prior to the experiment to acclimatize the animals to handling and injections.

C57BL/6J mice [3] = test: GLP1R-GLP2R dual agonist compound study: cumulative food intake; format: in vivo; details: Day 0-7; 3.0 mg/kg BID SC; mean ± S.E.M.
From the text: as §1

C57BL/6J mice [4] = test: GLP1R-GLP2R dual agonist compound study: oral glucose tolerance test; format: in vivo; details: Day 7; 3.0 mg/kg BID SC; glucose 2 g/kg oral; mean ± S.E.M.
Procedure: On day 7, an oral glucose tolerance test (OGTT) was performed. Animals were mildly fasted as all food was removed 4 hours prior to the oral glucose load. Vehicle (SC) and compounds were administered subcutaneously (SC) 2 hours prior to the OGTT. At t=0 mice received an oral glucose load (2 g/kg; 4 ml/kg; 500 mg/ml, Fresenius Kabi, Sweden). Glucose was given as gavage via a gastrically-placed tube connected to a syringe ensuring accurate dosing. Blood glucose was measured from tail vein blood before glucose (at t=−120 and 0 min, baseline) and after glucose administration at t=15, 30, 60 and 120 min. Blood samples (tail vein) was collected into 10 μl heparinized glass capillary tubes and immediately suspended in buffer (0.5 ml of glucose/lactate system solution (EKF-diagnostics, Germany) and analyzed for glucose on the test day using a BIOSEN c-Line glucose meter (EKF-diagnostics, Germany) according to manufacturer's instructions. Results from the OGTT are listed below in Table 11.

C57BL/6J mice [5] = test: GLP1R-GLP2R dual agonist compound study: gut wet weight; format: in vivo; details: Day 8; 3.0 mg/kg BID SC; mean ± S.E.M.
From the text: On study day 8, the mice were terminated and the GI tract was removed for determination of the gut wet weight. The gut wet weight results are listed below in Table 12.

GLP-2R = target: T1, GLP-2R (Homo sapiens, UniProt O95838); test: GLP2 receptor efficacy assay (in vitro functional screen, Euroscreen or DiscoveRx); details: EC50 of native GLP-2 / EC50 of compound
T1 sequence (O95838 1-553): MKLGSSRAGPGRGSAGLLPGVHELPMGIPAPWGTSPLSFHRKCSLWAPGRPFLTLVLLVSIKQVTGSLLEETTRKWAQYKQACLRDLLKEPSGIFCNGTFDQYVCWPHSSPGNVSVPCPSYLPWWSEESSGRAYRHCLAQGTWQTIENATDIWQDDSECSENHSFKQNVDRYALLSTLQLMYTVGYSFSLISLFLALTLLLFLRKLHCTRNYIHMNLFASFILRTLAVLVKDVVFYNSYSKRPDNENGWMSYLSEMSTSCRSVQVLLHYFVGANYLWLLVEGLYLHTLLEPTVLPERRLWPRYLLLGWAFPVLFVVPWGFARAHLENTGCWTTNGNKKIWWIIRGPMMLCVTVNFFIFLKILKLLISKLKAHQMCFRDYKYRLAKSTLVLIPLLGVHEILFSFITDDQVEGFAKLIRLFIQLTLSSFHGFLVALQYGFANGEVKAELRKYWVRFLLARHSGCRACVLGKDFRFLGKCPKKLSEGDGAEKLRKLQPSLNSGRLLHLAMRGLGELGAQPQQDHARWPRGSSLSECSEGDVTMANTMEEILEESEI

human GLP-1 receptor [6] = target: T2, human GLP-1 receptor (human, UniProt P43220 24-463, limits assumed); test: cell-based or functional assay
human GLP-2 receptor [7] = target: T3, human GLP-2 receptor (human, UniProt O95838 1-553, limits assumed); test: cell-based or functional assay
T3 sequence (looked up): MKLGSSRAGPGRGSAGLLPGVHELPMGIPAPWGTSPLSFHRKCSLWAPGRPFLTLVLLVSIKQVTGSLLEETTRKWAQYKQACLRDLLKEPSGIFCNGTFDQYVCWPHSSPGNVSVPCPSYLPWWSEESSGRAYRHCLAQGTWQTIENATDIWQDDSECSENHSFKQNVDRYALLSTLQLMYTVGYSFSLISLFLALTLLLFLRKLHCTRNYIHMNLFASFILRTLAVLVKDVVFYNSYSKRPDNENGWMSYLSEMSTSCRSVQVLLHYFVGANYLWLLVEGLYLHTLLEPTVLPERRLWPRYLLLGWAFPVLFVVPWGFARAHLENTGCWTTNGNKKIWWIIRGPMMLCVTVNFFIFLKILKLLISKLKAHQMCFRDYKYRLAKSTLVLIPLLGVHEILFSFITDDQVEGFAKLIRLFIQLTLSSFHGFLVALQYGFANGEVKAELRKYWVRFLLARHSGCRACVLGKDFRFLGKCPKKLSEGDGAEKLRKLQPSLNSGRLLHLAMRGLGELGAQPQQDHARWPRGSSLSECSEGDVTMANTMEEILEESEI

human GLP-1 receptor [8] = target: T2, human GLP-1 receptor; test: cell-based or functional assay; remark: listed apart in the source
human GLP-2 receptor [9] = target: T3, human GLP-2 receptor; test: cell-based or functional assay; remark: listed apart in the source
[10] = Day 8, BID SC, liraglutide 0.2 mg/kg, teduglutide 1.0 mg/kg, alone or combined, mean ± S.E.M.

## CC[C@H](C)[C@H](NC(=O)[C@H](Cc1ccccc1)NC(=O)[C@H](CC(=O)O)NC(=O)[C@H](CCCNC(=N)N)NC(=O)[C@H](C)NC(=O)[C@H](C)NC(=O)[C@H](CC(C)C)NC(=O)[C@H](CC(N)=O)NC(=O)[C@H](CC(=O)O)NC(=O)[C@H](CC(C)C)NC(=O)[C@@H](NC(=O)[C@@H](NC(=O)[C@H](CC(N)=O)NC(=O)[C@H](CCSC)NC(=O)[C@H](CCC(=O)O)NC(=O)[C@H](CC(=O)O)NC(=O)[C@H](CO)NC(=O)[C@H](Cc1ccccc1)NC(=O)[C@H](CO)NC(=O)CNC(=O)[C@H](CC(=O)O)NC(=O)[C@H](C)NC(=O)[C@@H](N)Cc1c[nH]cn1)[C@@H](C)O)[C@@H](C)CC)C(=O)N[C@@H](CC(N)=O)C(=O)N[C@@H](Cc1c[nH]c2ccccc12)C(=O)N[C@@H](CC(C)C)C(=O)N[C@H](C(=O)N[C@@H](CCC(N)=O)C(=O)N[C@H](C(=O)N[C@@H](CCCCN)C(=O)N[C@H](C(=O)N[C@H](C(=O)N[C@@H](CC(=O)O)C(=O)O)[C@@H](C)O)[C@@H](C)CC)[C@@H](C)O)[C@@H](C)CC [GLP-2]
C57BL/6J mice [1]; Day 8, 3 mg/kg BID SC, female C57BL/6J mice, mean ± S.E.M.
  Total intestine weight: 1256 ± 30.1 mg
C57BL/6J mice [1]; seven days of dosing, 3.0 mg/kg each BID SC
  increase in intestinal weight compared to vehicle: approx. 25%

## CC[C@H](C)[C@H](NC(=O)[C@H](Cc1ccccc1)NC(=O)[C@H](CC(=O)O)NC(=O)[C@H](CCCNC(=N)N)NC(=O)[C@H](C)NC(=O)[C@H](C)NC(=O)[C@H](CC(C)C)NC(=O)[C@H](CC(N)=O)NC(=O)[C@H](CC(=O)O)NC(=O)[C@H](CC(C)C)NC(=O)[C@@H](NC(=O)[C@@H](NC(=O)[C@H](CC(N)=O)NC(=O)[C@H](CCSC)NC(=O)[C@H](CCC(=O)O)NC(=O)[C@H](CC(=O)O)NC(=O)[C@H](CO)NC(=O)[C@H](Cc1ccccc1)NC(=O)[C@H](CO)NC(=O)CNC(=O)[C@H](CC(=O)O)NC(=O)CNC(=O)[C@@H](N)Cc1c[nH]cn1)[C@@H](C)O)[C@@H](C)CC)C(=O)N[C@@H](CC(N)=O)C(=O)N[C@@H](Cc1c[nH]c2ccccc12)C(=O)N[C@@H](CC(C)C)C(=O)N[C@H](C(=O)N[C@@H](CCC(N)=O)C(=O)N[C@H](C(=O)N[C@@H](CCCCN)C(=O)N[C@H](C(=O)N[C@H](C(=O)N[C@@H](CC(=O)O)C(=O)O)[C@@H](C)O)[C@@H](C)CC)[C@@H](C)O)[C@@H](C)CC [Teduglutide]
C57BL/6J mice [2]; [10]
  Gut wet weight: 2.6 ± 0.2 ^### g
  Large intestine length: 5.1 ± 0.6 cm
  Large intestine weight: 0.26 ± 0.03 g
  Small intestine length: 22.9 ± 1.6 cm
  Small intestine weight: 1.3 ± 0.2 g
C57BL/6J mice [2]; PoC study 2, Tables 5, 6, 8, 9
  effect of single treatment on gut weight and length: increases in gut wet weight (Table 5), small intestine weight (Table 6) and small intestine length (Table 8)
C57BL/6J mice [3]
  Cumulative food intake: 31.82 ± 6.52 g
C57BL/6J mice [4]
  Oral glucose tolerance test AUC, 0-120 min: 890 ± 182 mmol·min/L
C57BL/6J mice [5]
  Gut wet weight: 3.0 ± 0.3 g
GLP-2R
  relative GLP-2 activity: 1.0

B1: native human GLP-1 (ligand)
peptide: HAEGTFTSDVSSYLEGQAAKEFIAWLVKG
modifications: ends and bridges not checked
Human GLP-1 receptor [6]
  GLP-1R, EC50: 0.026 nM
Human GLP-2 receptor [7]
  GLP-2R, EC50: > 1000 nM
Human GLP-1 receptor [8]
  GLP-1R, EC50: 0.004 nM
Human GLP-2 receptor [9]
  GLP-2R, EC50: > 100 nM
